Laboratory results taken from publication PMC6980506, “Comparative pharmacokinetics and pharmacodynamics of the advanced Retinol-Binding Protein 4 antagonist in dog and cynomolgus monkey” (PLoS ONE, 2020).
Values joined by “and” are separate entries in the source; they are usually repeats but may differ in a detail not shown here. Equal values may be shown once. Read-outs that look alike come from different tables or passages of the source.

Legend:
[1] = Single dose pharmacokinetic study in cynomolgus monkey; type: in vivo
Experimental: Pharmacokinetic studies were conducted in male beagle dogs and male cynomolgus monkeys at SRI International, Menlo Park, CA. General procedures for animal care and housing were in accordance with the National Research Council (NRC) Guide for the Care and Use of Laboratory Animals (1996) and the Animal Welfare Standards incorporated in 9 CFR Part 3, 1991 and complied with guidelines set forth by the ARVO Animal Statement for the Use of Animals in Ophthalmic and Vision Research. During the course of the PK experiments, cynomolgus monkeys were individually housed in stainless steel primary enclosures in an AAALAC-accredited facility. Animals were fed a commercial monkey chow, and supplemental food was provided (fresh fruits, vegetables, seeds, and nuts). Reverse osmosis-purified drinking water was available at all times. Cynomolgus monkeys were maintained on a 12:12 hour light:dark cycle at the 64–84°F temperature and 30–70% humidity. Monkeys had access to enrichment opportunities (grooming devices, foraging devices, activity panels and mirrors) and were provided auditory stimuli and human interaction enrichment throughout the study. Blood samples were collected by venipuncture of a peripheral vein. Animals were acclimated to the squeeze back mechanism in their home cage by repeated, short periods of restraint during general husbandry procedures for at least 2 weeks prior to dosing. Animal were not removed from their cages for collection, and no anesthesia/analgesic agents were used for blood collection. […] For PK experiments, beagle dogs were individually housed in enclosed run (≥ 4 ft x 6 ft). Dogs were exposed to their daily ration of food, Harlan Teklad 2025C Certified Global 25% Protein Dog Diet. Water was provided from the public water supply (municipal tap water) ad libitum. Dogs were maintained on a 12:12 hour light:dark cycle at the 72–73°F temperature and 40–71% humidity. Every effort was made to minimize, if not eliminate, pain and suffering in all animals in this study. No restraining devices were used in blood collecting procedures. Dogs were gentle hand-held to restrain by trained technicians with the dogs foreleg extended for sample collection of blood from cephalic vein. Animals were awake during blood sample collection with no anesthesia/analgesic agents used, and positive reinforcement by the technician was provided following collection. […] All dogs were released back to the colony after the study was completed. Male beagle dogs and male cynomolgus monkey received a single i.v. dose of a test compound at 0.5 mg kg^−1 (dog) and 1 mg kg^−1 (monkey) or a single p.o. dose of a test compound of at 2 mg kg^−1 (dog) and 5 mg kg^−1 (monkey). The number of animals that was used in PK experiments is 3 per study group. Intravenous administration vehicle was 3% DMA/45% PEG300/12% ethanol/40% sterile water; p.o. vehicle was 2% Tween 80 in 0.9% saline. […] Blood samples were processed to plasma. Following protein extraction with acetonitrile, compound concentrations in plasma were measured by LC-MS/MS. The plasma drug level data were analyzed using WinNonlin software package; Model 201 (for i.v. bolus administration);was used for the analysis of i.v. data, and Model 200 (for extravascular administration) was used for the analysis of the p.o. data. Aliquots of pre-dose plasma samples, as well as aliquots of plasma PK samples, were used for the analysis of the plasmabiomarker, RBP4.
Administration to Non-Human Primates
II. MATERIALS AND METHODS

[2] = design: method as in PMID 26181715; conditions: human liver microsomes; cited from earlier work
[3] = system: serum RBP4; design: method as in PMID 29871924; conditions: mice; cited from earlier work
[4] = system: cytochrome (CYP) P450 enzymes; design: method as in PMID 26181715; conditions: all standard CYP P450 enzymes; read-out: CYP inhibition IC50; cited from earlier work
[5] = male, cynomolgus monkey, plasma, po, Cyno, 5.0 mg kg^−1 p.o., mean ± SD, n=3

concentration at 4 hr ([1]; male, cynomolgus monkey, plasma, po, 5 mg/kg, non-human primate, po 5 mg/kg, 4 hr, read-out: Plasma level, Individual animals): 26600 ng/mL | concentration at 4 hr ([1]; male, cynomolgus monkey, plasma, po, 5 mg/kg, non-human primate, po 5 mg/kg, 4 hr, read-out: Plasma level, Mean): 27200 ng/mL | concentration at 6 hr ([1]; male, cynomolgus monkey, plasma, po, 5 mg/kg, non-human primate, po 5 mg/kg, 6 hr, read-out: Plasma level, Individual animals): 26700 ng/mL | concentration at 6 hr ([1]; male, cynomolgus monkey, plasma, po, 5 mg/kg, non-human primate, po 5 mg/kg, 6 hr, read-out: Plasma level, Mean): 26600 ng/mL | concentration at 8 h ([1]; male, cynomolgus monkey, plasma, po, 5 mg/kg, non-human primate, po 5 mg/kg, 8 hr, read-out: Plasma level, Individual animals): 23900 ng/mL | concentration at 8 h ([1]; male, cynomolgus monkey, plasma, po, 5 mg/kg, non-human primate, po 5 mg/kg, 8 hr, read-out: Plasma level, Mean): 23900 ng/mL | concentration at 12 h ([1]; male, cynomolgus monkey, plasma, po, 5 mg/kg, non-human primate, po 5 mg/kg, 12 hr, read-out: Plasma level, Individual animals): 16700 ng/mL | concentration at 12 h ([1]; male, cynomolgus monkey, plasma, po, 5 mg/kg, non-human primate, po 5 mg/kg, 12 hr, read-out: Plasma level, Mean): 18600 ng/mL | concentration at 24 h ([1]; male, cynomolgus monkey, plasma, po, 5 mg/kg, non-human primate, po 5 mg/kg, 24 hr, read-out: Plasma level, Individual animals): 12700 ng/mL | concentration at 24 h ([1]; male, cynomolgus monkey, plasma, po, 5 mg/kg, non-human primate, po 5 mg/kg, 24 hr, read-out: Plasma level, Mean): 12500 ng/mL | concentration at 36 h ([1]; male, cynomolgus monkey, plasma, po, 5 mg/kg, non-human primate, po 5 mg/kg, 36 hr, read-out: Plasma level, Individual animals): 6800 ng/mL | concentration at 36 h ([1]; male, cynomolgus monkey, plasma, po, 5 mg/kg, non-human primate, po 5 mg/kg, 36 hr, read-out: Plasma level, Mean): 7190 ng/mL | concentration at 48 h ([1]; male, cynomolgus monkey, plasma, po, 5 mg/kg, non-human primate, po 5 mg/kg, 48 hr, read-out: Plasma level, Mean): 5380 ng/mL | AUC(0-t) [1, 5]: 676 ± 129 µg·h/mL | Tmax [1, 5]: 1.67 ± 0.58 h | half-life ([1]; male, cynomolgus monkey, plasma, po, Cyno, 5.0 mg kg^−1 p.o., mean ± SD, n=3, read-out: T1/2, apparent terminal half-life (converted)): 17.8 ± 4.2 h | Plasma level, Individual animals ([1]; non-human primate, iv 1.0 mg/kg, 0.0083 hr, 1 mg/kg): 11200 ng/mL and 12100 ng/mL | Plasma level, Individual animals ([1]; non-human primate, iv 1.0 mg/kg, 0.25 hr, 1 mg/kg): 10900 ng/mL and 10800 ng/mL | Plasma level, Individual animals ([1]; non-human primate, iv 1.0 mg/kg, 0.5 hr, 1 mg/kg): 10000 ng/mL and 9400 ng/mL | Plasma level, Individual animals ([1]; non-human primate, iv 1.0 mg/kg, 1 hr, 1 mg/kg): 8350 ng/mL and 9370 ng/mL | Plasma level, Individual animals ([1]; non-human primate, iv 1.0 mg/kg, 2 hr, 1 mg/kg): 7340 ng/mL and 8000 ng/mL | Plasma level, Individual animals ([1]; non-human primate, iv 1.0 mg/kg, 4 hr, 1 mg/kg): 6800 ng/mL and 7000 ng/mL | Plasma level, Individual animals ([1]; non-human primate, iv 1.0 mg/kg, 8 hr, 1 mg/kg): 5290 ng/mL and 6220 ng/mL | Plasma level, Individual animals ([1]; non-human primate, iv 1.0 mg/kg, 12 hr, 1 mg/kg): 3860 ng/mL and 6000 ng/mL | Plasma level, Individual animals ([1]; non-human primate, iv 1.0 mg/kg, 24 hr, 1 mg/kg): 2510 ng/mL and 3430 ng/mL | Plasma level, Individual animals ([1]; non-human primate, iv 1.0 mg/kg, 36 hr, 1 mg/kg): 1610 ng/mL and 1090 ng/mL and 2300 ng/mL | Plasma level, Individual animals ([1]; non-human primate, iv 1.0 mg/kg, 48 hr, 1 mg/kg): 962 ng/mL and 671 ng/mL and 1530 ng/mL | Plasma level, Mean ([1]; non-human primate, iv 1.0 mg/kg, Predose): 196 ng/mL | Plasma level, Individual animals ([1]; non-human primate, iv 1.0 mg/kg, Predose, 1 mg/kg): 132 ng/mL and 64.6 ng/mL and 392 ng/mL | Plasma level, Individual animals ([1]; non-human primate, po 5 mg/kg, 0.25 hr, 5 mg/kg): 9420 ng/mL and 14200 ng/mL | Plasma level, Individual animals ([1]; non-human primate, po 5 mg/kg, 0.5 hr, 5 mg/kg): 15200 ng/mL and 23400 ng/mL | Plasma level, Individual animals ([1]; non-human primate, po 5 mg/kg, 1 hr, 5 mg/kg): 31400 ng/mL and 33300 ng/mL | Plasma level, Individual animals ([1]; non-human primate, po 5 mg/kg, 2 hr, 5 mg/kg): 29300 ng/mL and 32000 ng/mL | Plasma level, Individual animals ([1]; non-human primate, po 5 mg/kg, 4 hr, 5 mg/kg): 25800 ng/mL and 29100 ng/mL | Plasma level, Individual animals ([1]; non-human primate, po 5 mg/kg, 6 hr, 5 mg/kg): 22400 ng/mL and 30600 ng/mL | Plasma level, Individual animals ([1]; non-human primate, po 5 mg/kg, 8 hr, 5 mg/kg): 21700 ng/mL and 26200 ng/mL | Plasma level, Individual animals ([1]; non-human primate, po 5 mg/kg, 12 hr, 5 mg/kg): 16100 ng/mL and 22900 ng/mL | Plasma level, Individual animals ([1]; non-human primate, po 5 mg/kg, 24 hr, 5 mg/kg): 9590 ng/mL and 15100 ng/mL | Plasma level, Individual animals ([1]; non-human primate, po 5 mg/kg, 36 hr, 5 mg/kg): 5230 ng/mL and 9530 ng/mL | Plasma level, Individual animals ([1]; non-human primate, po 5 mg/kg, 48 hr, 5 mg/kg): 4550 ng/mL and 2950 ng/mL and 8650 ng/mL
SMILES: Cc1cc(C(=O)O)nc(N2C[C@H]3C[C@@H](c4ccccc4C(F)(F)F)C[C@H]3C2)n1 [BPN-14136]
stability in liver microsomes, % remaining at 30 min [2]: > 90% | serum RBP4 lowering [3]: 90% | IC50 [4]: > 34 µM
